Patent US20030092757A1, “Favorable modulation of health-related quality of life and health-related quality-adjusted time-to-progression of disease in patients with prostate cancer” (priority 2001, published 2003)

Test system: patients having hormone refractory prostate cancer (HRPCa)
Test: Time to disease or PSA progression across treatment groups
Type: in vivo, human
Conditions: intent-to-treat population
Procedure: Patients received treatment with 10 mg (N=89) or 2.5 mg (N=95) of atrasentan or placebo (N=104) until experiencing a clinical event indicative of disease progression such as palliative opiate treatment of new bone or visceral pain, palliative radiation treatment of new bone pain, or new tumor growth symptoms requiring intervention or treatment with chemotherapy.

For CCCCN(CCCC)C(=O)CN1C[C@H](c2ccc3c(c2)OCO3)[C@@H](C(=O)O)[C@@H]1c1ccc(OC)cc1 [atrasentan, (2R,3R,4S)-2-(4-methoxyphenyl)-4-(1,3-benzodioxol-5-yl)-1-(((N,N-dibutylamino)carbonyl)methyl)pyrrolidine-3-carboxylic acid], the “differences in either the time to disease or PSA progression across treatment groups” value was “no statistically significant differences”.
